Experimental data as given in ChEMBL document CHEMBL1139337, “Syntheses and biological activities of fluorescent-labeled analogs of acylpolyamine toxin NPTX-594 isolated from the venom of Madagascar Joro spider” (2009).

System: Gryllus bimaculatus
Experiment: Induction of paralysis in Gryllus bimaculatus assessed as drug level causing paralysis per gram of cricket after 5 mins
Format: functional

Row | SMILES | ED50 [nmol]
1 | NCCCCNCC(=O)NCCCNCCCNCCCCNC(=O)[C@H](CC(N)=O)NC(=O)Cc1cc(=O)oc2cc(O)ccc12 | 0.136
2 | NCCCC[C@H](N)C(=O)NCCCNCCCNCCCCNC(=O)[C@H](CC(N)=O)NC(=O)c1cc2ccc(O)cc2oc1=O | 2.59
3 | NCCCC[C@H](N)C(=O)NCCCNCCCNCCCCNC(=O)[C@H](CC(N)=O)NC(=O)Cc1ccc(O)cc1O | 0.175
4 | NCCCCNCC(=O)NCCCNCCCNCCCCNC(=O)[C@H](CC(N)=O)NC(=O)c1cc2ccc(O)cc2oc1=O | 5.69
5 | NCCCC[C@H](N)C(=O)NCCCNCCCNCCCCNC(=O)[C@H](CC(N)=O)NC(=O)Cc1cc(=O)oc2cc(O)ccc12 | 1.05
